In one data set the test system is SKH-1 Elite mice. As to the kind of experiment: Oxazolone model of chronic skin inflammation: blood lymphocyte and white blood cell counts. It is filed as in vivo, mouse. The conditions noted are these: day 29; PO; Compound 1 30 mg/kg b.i.d., Dexamethasone 1.5 mg/kg q.d. The procedure:
FIGS. 9A and 9B report the effects on blood lymphocyte (FIG. 9A) and white blood cell (WBC) (FIG. 9B) levels in mice treated as in FIG. 8. Lymphocyte level reduction was severe with dexamethasone treated mice and less so with Compound 1 treatment.
The Oxazolone model of chronic skin inflammation, was tested using Compound 1 and a known anti-inflammatory, dexamethasone. SKH-1 Elite mice were sensitized with 10 µL of a high dose of topical Oxazolone (5% wt/vol in 100% EtOH) on their back and a subsequent chronic inflammation was triggered using low doses of topical Oxazolone (0.1% wt/vol in 100% EtOH) every other day on both flanks. […]
Three hundred (300) µL of whole blood in 10 mM EDTA freshly collected at day 29 of the study and erythrocytes was analyzed for counting of lymphocytes (FIG. 9A) and white blood cells (WBC) (FIG. 9B) using an Advia - 120 hematology analyzer. Lymphocyte and white blood cell (WBC) populations were quantified for each treatment group (n=3, 6, 8, 8, 8, 6, respectively). All data are mean ± s.e.m. and statistical significance was assessed using one-way ANOVA followed by Tukey’s multiple comparisons test with the following adjusted p-value thresholds: <0.05 (*), < 0.01 (**), < 0.001 (***) and <0.0001 (****).

The next data set can be described thus: Half-life of Compound 1. The conditions noted are these: read-out: t½ (converted).

Molecules are shown by their SMILES.

As to `C[C@@H]1C[C@H]2[C@@H]3CCC4=CC(=O)C=C[C@]4(C)[C@@]3(F)[C@@H](O)C[C@]2(C)[C@@]1(O)C(=O)CO` [Dexamethasone], the “blood lymphocyte level reduction” value in the data set on SKH-1 Elite mice is given as “severe”.
As to `Cc1cc(C(=O)N(C)C)cc(NC(=O)[C@H]2CCC(=O)N2C2CCN(Cc3ccc(Cl)c(C)c3)CC2)n1` [Compound 1], the half-life in the data set “Half-life of Compound 1” is 18 h.
